# Source: article PMC6042686 (PLoS Biology, 2018)
# Several values for one entry are separate records, joined by “and”; a condition that tells them apart may be missing. Identical values can stand only once. Like-named read-outs stand apart in the source and are kept apart here.
# Key:
# polar bear TRPV1 (pV1) = polar bear TRPV1 (pV1) (Ursus maritimus, UniProt A0A384CG69); experiment: cell-based
# tsV1_M579V = tsV1_M579V (Tupaia chinensis, UniProt L8Y7X1, M598V); experiment: cell-based; parameters: species or system tree shrew
# Chain of tsV1_M579V (L8Y7X1 1-828 M598V): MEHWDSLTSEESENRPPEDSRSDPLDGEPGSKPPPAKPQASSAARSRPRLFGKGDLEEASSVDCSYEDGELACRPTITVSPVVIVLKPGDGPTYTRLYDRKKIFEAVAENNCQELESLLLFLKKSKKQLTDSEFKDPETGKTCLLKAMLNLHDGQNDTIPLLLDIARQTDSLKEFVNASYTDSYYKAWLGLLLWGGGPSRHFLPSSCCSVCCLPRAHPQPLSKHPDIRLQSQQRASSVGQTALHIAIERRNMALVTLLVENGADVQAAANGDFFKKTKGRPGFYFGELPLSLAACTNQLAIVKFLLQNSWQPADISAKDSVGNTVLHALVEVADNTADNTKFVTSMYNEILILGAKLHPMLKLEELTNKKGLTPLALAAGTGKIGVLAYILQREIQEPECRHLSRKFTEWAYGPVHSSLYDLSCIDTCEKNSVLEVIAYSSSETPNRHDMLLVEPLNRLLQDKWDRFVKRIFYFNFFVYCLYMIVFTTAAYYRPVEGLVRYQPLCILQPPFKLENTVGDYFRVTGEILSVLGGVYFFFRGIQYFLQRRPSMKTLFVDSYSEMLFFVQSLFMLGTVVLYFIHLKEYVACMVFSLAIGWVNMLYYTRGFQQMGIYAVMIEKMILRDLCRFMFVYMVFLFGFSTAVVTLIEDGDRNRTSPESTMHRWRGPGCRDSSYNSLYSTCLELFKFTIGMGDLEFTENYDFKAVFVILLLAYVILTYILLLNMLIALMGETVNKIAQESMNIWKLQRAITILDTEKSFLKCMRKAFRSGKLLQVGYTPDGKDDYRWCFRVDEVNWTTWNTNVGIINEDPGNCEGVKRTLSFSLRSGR
# tree shrew TRPV1 (tsV1) = tree shrew TRPV1 (tsV1) (Tupaia chinensis, UniProt L8Y7X1); experiment: cell-based; settings: for EC50: EC50 for activation of tsV1
# Chain of tree shrew TRPV1 (tsV1) (L8Y7X1 1-828): as the sequence (L8Y7X1 1-828 M598V) above, with V598M counted along it
# mouse TRPV1 (mV1) = target: T1, mouse TRPV1 (mV1) (Mus musculus, UniProt Q704Y3); experiment: cell-based; settings: EC50 for activation of mV1
# T1 construct: expressed in transfected cells; host or cells: HEK293T
# T1 sequence (Q704Y3 whole entry): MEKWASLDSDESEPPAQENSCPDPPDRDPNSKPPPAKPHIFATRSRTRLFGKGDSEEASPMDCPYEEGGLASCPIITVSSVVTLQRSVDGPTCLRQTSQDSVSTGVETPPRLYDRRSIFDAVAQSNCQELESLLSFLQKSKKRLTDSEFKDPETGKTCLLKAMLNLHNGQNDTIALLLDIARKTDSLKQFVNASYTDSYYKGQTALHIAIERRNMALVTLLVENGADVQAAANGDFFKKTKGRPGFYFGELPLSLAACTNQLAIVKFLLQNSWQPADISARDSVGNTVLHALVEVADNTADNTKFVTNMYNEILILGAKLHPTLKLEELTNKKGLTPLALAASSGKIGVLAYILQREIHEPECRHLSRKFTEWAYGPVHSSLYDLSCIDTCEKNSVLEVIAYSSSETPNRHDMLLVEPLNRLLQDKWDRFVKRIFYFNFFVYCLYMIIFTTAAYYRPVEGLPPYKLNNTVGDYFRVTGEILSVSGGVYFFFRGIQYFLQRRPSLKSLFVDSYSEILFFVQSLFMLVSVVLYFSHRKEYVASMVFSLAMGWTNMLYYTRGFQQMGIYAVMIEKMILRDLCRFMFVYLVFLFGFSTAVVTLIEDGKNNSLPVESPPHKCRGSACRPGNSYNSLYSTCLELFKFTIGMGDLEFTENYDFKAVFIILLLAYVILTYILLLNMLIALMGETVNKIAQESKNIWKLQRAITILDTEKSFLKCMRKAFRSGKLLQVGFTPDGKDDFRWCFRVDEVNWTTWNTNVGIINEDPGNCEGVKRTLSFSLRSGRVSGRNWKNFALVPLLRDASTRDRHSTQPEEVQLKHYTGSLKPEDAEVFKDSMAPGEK
# BALB/c mice [1] = settings: in vivo; for Change of food intake when the compound is added to the food: mouse
# human TRPV1 (hV1) = target: T2, human TRPV1 (hV1) (Homo sapiens, UniProt Q8NER1); experiment: cell-based
# T2 construct: expressed in transfected cells; host or cells: HEK293T
# T2 sequence (Q8NER1 whole entry): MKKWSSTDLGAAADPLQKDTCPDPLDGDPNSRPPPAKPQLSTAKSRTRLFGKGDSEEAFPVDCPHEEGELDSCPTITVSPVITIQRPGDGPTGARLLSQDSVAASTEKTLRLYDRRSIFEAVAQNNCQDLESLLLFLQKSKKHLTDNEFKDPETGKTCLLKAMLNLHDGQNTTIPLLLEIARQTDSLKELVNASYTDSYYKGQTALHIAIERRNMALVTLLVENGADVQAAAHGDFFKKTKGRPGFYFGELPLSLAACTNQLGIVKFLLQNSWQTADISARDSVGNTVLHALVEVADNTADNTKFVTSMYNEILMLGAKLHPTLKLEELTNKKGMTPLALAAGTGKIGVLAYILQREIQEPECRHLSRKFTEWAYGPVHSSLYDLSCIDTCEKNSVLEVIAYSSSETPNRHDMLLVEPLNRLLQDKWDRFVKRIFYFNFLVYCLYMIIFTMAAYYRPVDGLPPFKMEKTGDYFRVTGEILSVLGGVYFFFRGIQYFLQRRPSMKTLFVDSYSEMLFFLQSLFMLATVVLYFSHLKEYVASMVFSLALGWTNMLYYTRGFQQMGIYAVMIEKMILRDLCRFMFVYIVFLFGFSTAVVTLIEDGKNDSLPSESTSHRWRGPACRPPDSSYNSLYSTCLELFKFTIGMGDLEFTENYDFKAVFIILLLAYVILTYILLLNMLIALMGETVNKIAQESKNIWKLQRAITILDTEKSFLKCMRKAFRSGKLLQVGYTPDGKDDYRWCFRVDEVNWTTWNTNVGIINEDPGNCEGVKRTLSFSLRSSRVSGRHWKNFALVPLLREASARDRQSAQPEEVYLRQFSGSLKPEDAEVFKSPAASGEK
# tsV1_M579S = tsV1_M579S (Tupaia chinensis, UniProt L8Y7X1, M598S); experiment: cell-based; parameters: species or system tree shrew
# Chain of tsV1_M579S (L8Y7X1 1-828 M598S): as the sequence (L8Y7X1 1-828 M598V) above, with V598S counted along it
# tsV1_M579T = tsV1_M579T (Tupaia chinensis, UniProt L8Y7X1, M598T); experiment: cell-based; format: cell-based, tree shrew
# Chain of tsV1_M579T (L8Y7X1 1-828 M598T): as the sequence (L8Y7X1 1-828 M598V) above, with V598T counted along it
# mV1_T551M [2] = target: T3, mV1_T551M (Mus musculus, UniProt Q704Y3, T551M); format: cell-based
# T3 construct: expressed in transfected cells; host or cells: HEK293T (patch clamp); HEK293 (calcium imaging)
# T3 sequence (Q704Y3 whole entry T551M): as the sequence (Q704Y3 whole entry) above, with T551M counted along it
# tree shrews = format: in vivo, tree shrew (Tupaia belangeri chinensis);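 on Normalized food-intake, tree shrew (individual replicate): normalized to average intake of feed without capsaicin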
# tsV1_M579A = tsV1_M579A (Tupaia chinensis, UniProt L8Y7X1, M598A); experiment: cell-based; parameters: species or system tree shrew
# Chain of tsV1_M579A (L8Y7X1 1-828 M598A): as the sequence (L8Y7X1 1-828 M598V) above, with V598A counted along it
# tsV1_M579G = tsV1_M579G (Tupaia chinensis, UniProt L8Y7X1, M598G); experiment: cell-based; parameters: species or system tree shrew
# Chain of tsV1_M579G (L8Y7X1 1-828 M598G): as the sequence (L8Y7X1 1-828 M598V) above, with V598G counted along it
# mV1_T551M [3] = target: T3, mV1_T551M; experiment: cell-based
# BALB/c mice [4] = settings: in vivo
# mouse paw tissue = settings: in vivo
# tree shrew DRG neurons = format: cell-based
# mV1_T551V = target: T4, mV1_T551V (Mus musculus, UniProt Q704Y3, T551V); experiment: cell-based
# T4 construct: expressed in transfected cells; host or cells: HEK293T
# T4 sequence (Q704Y3 whole entry T551V): as the sequence (Q704Y3 whole entry) above, with T551V counted along it
# tree shrew = settings: in vivo
# 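Wherever Normalized food-intake, mouse (individual replicate) is given: normalized to average intake of feed without capsaicin.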
# Chain of polar bear TRPV1 (pV1) (A0A384CG69 1-841): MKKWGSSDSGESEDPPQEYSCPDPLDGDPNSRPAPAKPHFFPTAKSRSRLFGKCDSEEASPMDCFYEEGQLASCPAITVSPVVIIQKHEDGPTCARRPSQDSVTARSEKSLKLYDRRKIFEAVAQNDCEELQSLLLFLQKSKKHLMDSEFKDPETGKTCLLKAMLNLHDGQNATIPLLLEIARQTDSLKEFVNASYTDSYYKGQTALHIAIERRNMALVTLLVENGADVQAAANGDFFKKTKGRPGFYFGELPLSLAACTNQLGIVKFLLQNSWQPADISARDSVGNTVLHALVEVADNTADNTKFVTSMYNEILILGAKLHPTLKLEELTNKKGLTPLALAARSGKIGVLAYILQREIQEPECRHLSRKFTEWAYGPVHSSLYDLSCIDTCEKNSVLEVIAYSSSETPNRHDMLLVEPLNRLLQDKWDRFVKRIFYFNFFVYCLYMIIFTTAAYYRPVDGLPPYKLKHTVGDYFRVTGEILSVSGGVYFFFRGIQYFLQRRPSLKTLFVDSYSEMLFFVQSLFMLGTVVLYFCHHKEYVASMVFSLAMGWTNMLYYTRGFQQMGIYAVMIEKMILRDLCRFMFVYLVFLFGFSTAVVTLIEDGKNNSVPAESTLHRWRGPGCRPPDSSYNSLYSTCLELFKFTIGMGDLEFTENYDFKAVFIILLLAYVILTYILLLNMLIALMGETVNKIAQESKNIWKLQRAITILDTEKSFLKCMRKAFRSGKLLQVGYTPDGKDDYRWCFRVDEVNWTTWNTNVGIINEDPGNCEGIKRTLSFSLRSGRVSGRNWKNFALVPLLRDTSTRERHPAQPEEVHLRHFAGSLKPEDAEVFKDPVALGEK
smiles,measurement,setting,value
CCCCC/C=C/C=C/C(=O)NCCc1ccc(O)c(OC)c1 [Cap2],EC50,polar bear TRPV1 (pV1),0.87 ± 0.04 µM
same,EC50,tsV1_M579V,830 µM
same,EC50,tree shrew TRPV1 (tsV1),1900 µM and ~1900 µM
same,EC50 of tsV1 larger than the EC50 of mV1,tree shrew TRPV1 (tsV1); hek293t cells,"approximately 2,500 fold"
same,EC50,mouse TRPV1 (mV1),0.74 ± 0.05 µM
same,Change of food intake when the compound is added to the food,BALB/c mice [1],significantly decreased
same,EC50,human TRPV1 (hV1),5.73 ± 0.05 µM
same,EC50,tsV1_M579S,5.46 µM
same,Shift of concentration-response curve relative to wild-type tsV1,tsV1_M579S,large shifts to the left
same,EC50,tsV1_M579T,2.34 ± 0.26 µM
same,Shift of concentration-response curve relative to wild-type tsV1,tsV1_M579T,large shifts to the left
same,Change in the EC50 on mutating the homologous site (mV1_T551M or tsV1_M579T),tsV1_M579T; hek293t cells,"approximately 1,000 fold"
same,EC50 of tsV1_M579T lower than EC50 of wild-type tsV1,tsV1_M579T; hek293t cells,"approximately 1,000 fold"
same,Calcium signal in mV1_T551M-expressing HEK293 cells,mV1_T551M [2],largely diminished calcium signal
same,Change of food intake when the compound is added to the food,tree shrews; in vivo,slight increase
same,"Normalized food-intake, AVE_tree shrew",tree shrews; in vivo,1.13 and 1.269 and 1.38 and 1.28
same,EC50,tsV1_M579A,1070 µM
same,EC50,tsV1_M579G,920 µM
same,EC50,mV1_T551M [3],151.4 ± 0.12 µM
COc1cc(CNC(=O)CCCC/C=C/C(C)C)ccc1O [capsaicin],EC50,tree shrew TRPV1 (tsV1),5.2 ± 0.13 µM
same,"paw licking after capsaicin (S1B Fig), mouse, single animals",BALB/c mice [4],74.03 and 80.09 and 18.24 and 91.1 and 11.82 and 100.82 and 8.03 and 45.87 and 22.39 and 126.21
same,"paw licking after capsaicin (S1B Fig), AVE_mouse",BALB/c mice [4]; mouse,55.056 and 60.664
same,Paw tissue histology (H&E) after hind paw injection,mouse paw tissue,significantly increased
same,EC50,mouse TRPV1 (mV1),0.2 µM and ~0.2 µM
same,"Normalized food-intake, mouse (individual replicate)",BALB/c mice [1],0.359 and 0.496 and 0.524 and 0.168 and 0.264 and 0.288 and 0.063 and 0.143 and 0.169 and 0.008 and 0.009 and 0.007
same,Change of food intake when the compound is added to the food,BALB/c mice [1],significantly reduced in a concentration-dependent manner
same,Change in the EC50 on mutating the homologous site (mV1_T551M or tsV1_M579T),tsV1_M579T,approximately 10 fold
same,EC50 of tsV1_M579T lower than EC50 of wild-type tsV1,tsV1_M579T,approximately 50 fold
same,Calcium response of DRG neurons,tree shrew DRG neurons,much weaker response
same,EC50,mV1_T551V,~1.5 µM
same,"Normalized food-intake, AVE_tree shrew","tree shrews; 24 hours, n = 3",1.087 and 1.119 and 1.28 and 1.255
same,Change of food intake when the compound is added to the food,tree shrews; in vivo,no such change
same,"Normalized food-intake, tree shrew (individual replicate)",tree shrews; in vivo,1.004 and 1.211 and 1.046 and 1.034 and 1.223 and 1.101 and 1.209 and 1.372 and 1.259 and 1.119 and 1.381 and 1.265
same,Capsaicin-induced acute pain behavior (paw licking),tree shrew,absent
same,"paw licking after capsaicin (S1B Fig), AVE_tree shrew",tree shrew,1.836 and 1.5525
same,"paw licking after capsaicin (S1B Fig), tree shrew, single animals",tree shrew,3.34 and 1.67 and 2.84 and 0.95 and 1.47 and 1.89 and 1.46 and 0.74 and 2 and 2.07 and 2.32 and 2.01 and 1.28
same,EC50,mV1_T551M [3],~2.1 µM
CCCCC[C@H](O)CC(=O)CCc1ccc(O)c(OC)c1 [gingerol],Change in the EC50 on mutating the homologous site (mV1_T551M or tsV1_M579T),tsV1_M579T,approximately 6 fold
O=C(/C=C/C=C/c1ccc2c(c1)OCO2)N1CCCCC1 [piperine],Change in the EC50 on mutating the homologous site (mV1_T551M or tsV1_M579T),tsV1_M579T; hek293t cells,approximately 2 fold
CCCCC/C=C/C(=O)CCc1ccc(O)c(OC)c1 [shogaol],Change in the EC50 on mutating the homologous site (mV1_T551M or tsV1_M579T),tsV1_M579T; hek293t cells,approximately 10 fold
